Laboratory results: patent publication US20260022142A1, “MACROCYCLIC IMMUNOMODULATORS” (Bristol-Myers Squibb Company, priority 2022, published 2026)
Numbered stars: 1 amine (or outer) side, 2 acyl side, 3 side chain; on linkers, the order of the positions; unused ones are H or OH. Bridge positions count the residues as written; N and C are the ends. Square brackets hold non-standard residues; d marks the D form. Peptide text beside a SMILES is read from it. * marks the point of attachment. ξ: configuration not given here. Phe(3-CF3) = N[C@@H](Cc1cccc(C(F)(F)F)c1)C(=O)O; Ala(morpholin-4-yl) = N[C@@H](CN1CCOCC1)C(=O)O; Phe(4-COOH) = N[C@@H](Cc1ccc(C(=O)O)cc1)C(=O)O; Bip = N[C@@H](Cc1ccc(-c2ccccc2)cc1)C(=O)O; NH(CH2)14COOH = O=C(O)CCCCCCCCCCCCCCN*; Phe(3-Me) = Cc1cccc(C[C@H](N)C(=O)O)c1; βAsp = O=C(O)[C@H](CC(=O)[*:2])N[*:1]; NH(CH2)12COOH = O=C(O)CCCCCCCCCCCCN*; Val(3-OH) = CC(C)(O)[C@H](N)C(=O)O; hArg = N=C(N)NCCCC[C@H](N)C(=O)O; 4Pal = N[C@@H](Cc1ccncc1)C(=O)O; Cha = N[C@@H](CC1CCCCC1)C(=O)O; Cit = NC(=O)NCCC[C@H](N)C(=O)O; Ile(3ξ) = CCC(C)[C@H](N)C(=O)O; Thr(3ξ) = CC(O)[C@H](N)C(=O)O; 12Ado = NCCCCCCCCCCCC(=O)O; dDab = NCC[C@@H](N)C(=O)O; Carboxymethyl = O=C(O)C*; Orn = NCCC[C@H](N)C(=O)O; Aun = NCCCCCCCCCCC(=O)O; Dab = NCC[C@H](N)C(=O)O; Nva = CCC[C@H](N)C(=O)O; Abu = CC[C@H](N)C(=O)O; Dap = NC[C@H](N)C(=O)O; AEEA = NCCOCCOCC(=O)O

Molecular target: T1, PD-1/PD-L1 interaction (PE-labeled human PD-L1-Ig binding to Jurkat cell line over-expressing human PD-1) (Homo sapiens, UniProt Q15116)
T1 construct: expressed in transfected cells; host or cells: Jurkat
Assay: Jurkat-PD-1 Cell Binding High-Content Screening Assay (CBA)
Assay type: cell-based
Details: Jurkat cell line over-expressing human PD-1; PE-labeled PD-L1-Ig 20 nM final; read-out: Jurkat hPD1-PDL1 IC50
Outline: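 Jurkat cells stably over-expressing human PD-1 were seeded in DMEM with 10% fetal calf serum and pre-incubated with compound for 2 h at 37° C. PE-labeled human PD-L1-Ig was then added at 20 nM final for 1 hour, after which cells were fixed with paraformaldehyde, Hoechst-stained and imaged by high-content microscopy.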

T1 sequence (Q15116 25-288): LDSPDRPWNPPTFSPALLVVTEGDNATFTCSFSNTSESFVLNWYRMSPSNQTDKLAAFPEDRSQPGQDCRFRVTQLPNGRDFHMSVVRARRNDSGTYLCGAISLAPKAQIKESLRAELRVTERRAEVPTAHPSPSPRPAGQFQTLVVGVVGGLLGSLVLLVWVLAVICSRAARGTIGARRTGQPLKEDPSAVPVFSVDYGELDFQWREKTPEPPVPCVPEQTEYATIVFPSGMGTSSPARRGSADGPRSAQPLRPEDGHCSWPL

IC50 [µM]	Compound
0.0164	Cc1cccc(C[C@@H]2NC(=O)[C@H](CC(=O)O)NC(=O)[C@H](Cc3ccc(OCC(=O)O)cc3)NC(=O)[C@H](CCCCN)NC(=O)CSC[C@@H](C(=O)N[C@@H](CCN)C(=O)NCCCCCCCCCCC(=O)O)NC(=O)[C@H]([C@@H](C)O)NC(=O)[C@H](C(C)C)NC(=O)[C@H](CC3CCCCC3)NC(=O)[C@H](CCN)NC(=O)[C@@H](CC(C)C)NC(=O)[C@H](CCCN)NC(=O)[C@H](CCCNC(N)=O)NC(=O)[C@H](Cc3ccc(-c4ccccc4)cc3)NC(=O)[C@H](C(C)C)NC2=O)c1 [Compound 2823] ({CH2CO}-KY(Carboxymethyl)D[Phe(3-Me)]V[Bip][Cit][Orn][dL][Dab][Cha]VTC[Dab][Aun]-OH; thioether N-14)
0.061	CC(C)C[C@H]1NC(=O)[C@H](CCCN)NC(=O)[C@H](C(C)C)NC(=O)[C@H](Cc2ccc(-c3ccccc3)cc2)NC(=O)[C@H](C(C)C)NC(=O)[C@H](Cc2c[nH]c3ccccc23)NC(=O)[C@H](CC(=O)O)NC(=O)[C@H](Cc2ccc(OCC(=O)O)cc2)NC(=O)[C@H](CN)NC(=O)CSC[C@@H](C(=O)N[C@@H](C)C(=O)N[C@@H](CO)C(=O)NCCCCCCCCCCC(=O)O)NC(=O)[C@H]([C@@H](C)O)NC(=O)[C@H](C(C)C)NC(=O)[C@H](CC2CCCCC2)NC(=O)[C@H](Cc2cnc[nH]2)NC1=O [Compound 1114] ({CH2CO}-[Dap]Y(Carboxymethyl)DWV[Bip]V[Orn][dL]H[Cha]VTCAS[Aun]-OH; thioether N-14)
0.0805	CC(C)C[C@H]1NC(=O)[C@H](CCCN)NC(=O)[C@H](CCC(=O)O)NC(=O)[C@H](Cc2ccc(-c3ccccc3)cc2)NC(=O)[C@H](C(C)C)NC(=O)[C@H](Cc2c[nH]c3ccccc23)NC(=O)[C@H](CC(=O)O)NC(=O)[C@H](Cc2ccncc2)NC(=O)[C@H](C(C)O)NC(=O)CSC[C@@H](C(=O)N[C@@H](C)C(=O)NCCOCCOCC(=O)N[C@@H](CCCCN)C(=O)NCCCCCCCCCCCCCCC(=O)O)NC(=O)[C@H](CO)NC(=O)[C@H](C(C)C)NC(=O)[C@H](CC2CCCCC2)NC(=O)[C@H](CCN)NC1=O (stereo partly drawn) [Compound 3025] ({CH2CO}-[Thr(3ξ)][4Pal]DWV[Bip]E[Orn][dL][Dab][Cha]VSCA[AEEA]K-{NH(CH2)14COOH}; thioether N-14)
0.0073	CC(C)C[C@H]1NC(=O)[C@H](CCCN)NC(=O)[C@H](C(C)C)NC(=O)[C@H](Cc2ccc(-c3ccccc3)cc2)NC(=O)[C@H](C(C)C)NC(=O)[C@H](Cc2c[nH]c3ccccc23)NC(=O)[C@H](CC(=O)O)NC(=O)[C@H](Cc2c[nH]cn2)NC(=O)[C@H](CCCCNC(=N)N)NC(=O)CSC[C@@H](C(=O)NCC(=O)NCCOCCOCC(=O)N[C@@H](CCCN)C(=O)NCCCCCCCCCCC(=O)O)NC(=O)[C@H](CO)NC(=O)[C@H](C(C)C)NC(=O)[C@H](CC2CCCCC2)NC(=O)[C@H](CCN)NC1=O [Compound 3200] ({CH2CO}-[hArg]HDWV[Bip]V[Orn][dL][Dab][Cha]VSCG[AEEA][Orn][Aun]-OH; thioether N-14)
0.0405	Cc1cccc(C[C@@H]2NC(=O)[C@H](CC(=O)O)NC(=O)[C@H](Cc3ccc(OCC(=O)O)cc3)NC(=O)[C@H](CCCNC(=N)N)NC(=O)CSC[C@@H](C(=O)N[C@H](CO)C(=O)NCCCCCCCCCCCC(=O)O)NC(=O)[C@H](C(C)O)NC(=O)[C@H](C(C)C)NC(=O)[C@H](CC3CCCCC3)NC(=O)[C@H](CCN)NC(=O)[C@@H](CC(C)C)NC(=O)[C@H](CCCN)NC(=O)[C@H](CCCNC(N)=O)NC(=O)[C@H](Cc3ccc(-c4ccccc4)cc3)NC(=O)[C@H](C(C)C)NC2=O)c1 (stereo partly drawn) [Compound 3561] ({CH2CO}-RY(Carboxymethyl)D[Phe(3-Me)]V[Bip][Cit][Orn][dL][Dab][Cha]V[Thr(3ξ)]C[dS][12Ado]-OH; thioether N-14)
0.0662	CC(C)C[C@H]1NC(=O)[C@H](CCCN)NC(=O)[C@H](Cc2ccc(O)cc2)NC(=O)[C@H](Cc2ccc(-c3ccccc3)cc2)NC(=O)[C@H](C(C)C)NC(=O)[C@H](Cc2c[nH]c3ccccc23)NC(=O)[C@H](CC(=O)O)NC(=O)[C@H](Cc2ccc(OCC(=O)O)cc2)NC(=O)[C@H](CCCNC(=N)N)NC(=O)CSC[C@@H](C(=O)N[C@@H](CCN)C(=O)NCCCCCCCCCCC(=O)O)NC(=O)[C@H](Cc2ccc(O)cc2)NC(=O)[C@H](C(C)C)NC(=O)[C@H](CC2CCCCC2)NC(=O)[C@H](CCN)NC1=O [Compound 3343] ({CH2CO}-RY(Carboxymethyl)DWV[Bip]Y[Orn][dL][Dab][Cha]VYC[Dab][Aun]-OH; thioether N-14)
0.0009	Cc1cccc(C[C@@H]2NC(=O)[C@H](CC(=O)O)NC(=O)[C@H](Cc3ccc(OCC(=O)O)cc3)NC(=O)[C@H](CN3CCOCC3)NC(=O)CSC[C@@H](C(=O)N[C@@H](CCN)C(=O)NCCCCCCCCCCC(=O)O)NC(=O)[C@H](CO)NC(=O)[C@H](C(C)(C)O)NC(=O)[C@H](CC3CCCCC3)NC(=O)[C@H](CCN)NC(=O)[C@@H](CC(C)C)NC(=O)[C@H](CCCN)NC(=O)[C@H](Cc3ccc(OCC(=O)O)cc3)NC(=O)[C@H](Cc3ccc(-c4ccccc4)cc3)NC(=O)[C@H](Cc3ccc(OCC(=O)O)cc3)NC2=O)c1 [Compound 2235] ({CH2CO}-[Ala(morpholin-4-yl)]Y(Carboxymethyl)D[Phe(3-Me)]Y(Carboxymethyl)[Bip]Y(Carboxymethyl)[Orn][dL][Dab][Cha][Val(3-OH)]SC[Dab][Aun]-OH; thioether N-14)
0.0456	CC(C)C[C@H]1NC(=O)[C@H](CCCN)NC(=O)[C@H](Cc2ccc(OCC(=O)O)cc2)NC(=O)[C@H](Cc2ccc(-c3ccccc3)cc2)NC(=O)[C@H](Cc2ccc(OCC(=O)O)cc2)NC(=O)[C@H](Cc2cccc(C(F)(F)F)c2)NC(=O)[C@H](CC(=O)O)NC(=O)[C@H](Cc2ccc(OCC(=O)O)cc2)NC(=O)[C@H](Cc2cnc[nH]2)NC(=O)CSC[C@@H](C(=O)N[C@@H](CCN)C(=O)NCCCCCCCCCCCCC(=O)O)NC(=O)[C@H](CO)NC(=O)[C@H](C(C)(C)O)NC(=O)[C@H](CC2CCCCC2)NC(=O)[C@H](CCN)NC1=O [Compound 3836] ({CH2CO}-HY(Carboxymethyl)D[Phe(3-CF3)]Y(Carboxymethyl)[Bip]Y(Carboxymethyl)[Orn][dL][Dab][Cha][Val(3-OH)]SC[Dab]-{NH(CH2)12COOH}; thioether N-14)
0.0205	Cc1cccc(C[C@@H]2NC(=O)[C@H](CC(=O)O)NC(=O)[C@H](Cc3ccc(OCC(=O)O)cc3)NC(=O)[C@H](CCCCNC(=N)N)NC(=O)CSC[C@@H](C(=O)N[C@H](CCC(=O)O)C(=O)NCCCCCCCCCCCC(=O)O)NC(=O)[C@H](C(C)O)NC(=O)[C@H](C(C)C)NC(=O)[C@H](CC3CCCCC3)NC(=O)[C@H](CCN)NC(=O)[C@@H](CC(C)C)NC(=O)[C@H](CCCN)NC(=O)[C@H](CCCNC(N)=O)NC(=O)[C@H](Cc3ccc(-c4ccccc4)cc3)NC(=O)[C@H](C(C)C)NC2=O)c1 (stereo partly drawn) [Compound 3552] ({CH2CO}-[hArg]Y(Carboxymethyl)D[Phe(3-Me)]V[Bip][Cit][Orn][dL][Dab][Cha]V[Thr(3ξ)]C[dE][12Ado]-OH; thioether N-14)
0.0405	CCC(C)[C@@H]1NC(=O)[C@H](Cc2ccc(-c3ccccc3)cc2)NC(=O)[C@H](Cc2ccc(C(=O)O)cc2)NC(=O)[C@H](Cc2cccc(C)c2)NC(=O)[C@H](CC(=O)O)NC(=O)[C@H](Cc2ccc(C(=O)O)cc2)NC(=O)[C@H](Cc2ccncc2)NC(=O)CSC[C@@H](C(=O)N[C@H](CCN)C(=O)NCCOCCOCC(=O)NCCCCCCCCCCC(=O)O)NC(=O)[C@H](CCC(=O)O)NC(=O)[C@H](C(C)(C)O)NC(=O)[C@H](CC2CCCCC2)NC(=O)[C@H](CCN)NC(=O)[C@@H](CC(C)C)NC(=O)[C@H](Cc2cnc[nH]2)NC1=O (stereo partly drawn) [Compound 3739] ({CH2CO}-[4Pal][Phe(4-COOH)]D[Phe(3-Me)][Phe(4-COOH)][Bip][Ile(3ξ)]H[dL][Dab][Cha][Val(3-OH)]EC[dDab][AEEA][Aun]-OH; thioether N-14)
0.0265	CC[C@@H]1NC(=O)CSC[C@@H](C(=O)N[C@@H](CCN)C(=O)NCCOCCOCC(=O)N[C@@H](CC(=O)NCCOCCOCC(=O)NCCCCCCCCCCCCC(=O)O)C(=O)O)NC(=O)[C@H](CO)NC(=O)[C@H](C(C)(C)O)NC(=O)[C@H](CC2CCCCC2)NC(=O)[C@H](CCN)NC(=O)[C@@H](CC(C)C)NC(=O)[C@H](CCCN)NC(=O)[C@H](Cc2ccc(C(=O)O)cc2)NC(=O)[C@H](Cc2ccc(-c3ccccc3)cc2)NC(=O)[C@H](Cc2ccc(C(=O)O)cc2)NC(=O)[C@H](Cc2cccc(C(F)(F)F)c2)NC(=O)[C@H](CC(=O)O)NC(=O)[C@H](Cc2ccc(OCC(=O)O)cc2)NC1=O [Compound 2933] ({CH2CO}-[Abu]Y(Carboxymethyl)D[Phe(3-CF3)][Phe(4-COOH)][Bip][Phe(4-COOH)][Orn][dL][Dab][Cha][Val(3-OH)]SC[Dab][AEEA][βAsp][AEEA]-{NH(CH2)12COOH}; thioether N-14)
0.133	CCC[C@@H]1NC(=O)CSC[C@@H](C(=O)N[C@@H](CCN)C(=O)NCCOCCOCC(=O)NCCOCCOCC(=O)NCCCCCCCCCCCCCCC(=O)O)NC(=O)[C@H](CO)NC(=O)[C@H](C(C)(C)O)NC(=O)[C@H](CC2CCCCC2)NC(=O)[C@H](CCN)NC(=O)[C@@H](CC(C)C)NC(=O)[C@H](CCCN)NC(=O)[C@H](Cc2ccc(C(=O)O)cc2)NC(=O)[C@H](Cc2ccc(-c3ccccc3)cc2)NC(=O)[C@H](Cc2ccc(C(=O)O)cc2)NC(=O)[C@H](Cc2cccc(C)c2)NC(=O)[C@H](CC(=O)O)NC(=O)[C@H](Cc2ccc(OCC(=O)O)cc2)NC1=O [Compound 2884] ({CH2CO}-[Nva]Y(Carboxymethyl)D[Phe(3-Me)][Phe(4-COOH)][Bip][Phe(4-COOH)][Orn][dL][Dab][Cha][Val(3-OH)]SC[Dab][AEEA][AEEA]-{NH(CH2)14COOH}; thioether N-14)
